Measured values as given in patent US9420780B2, “Composition, method for producing the composition, and phytosanitary formulation containing same” (RHODIA OPERATIONS, priority 2011, dated 2016).

Assay: Solubility of agrochemical active ingredients in the solvent compositions: visual observation at 25° C., at 0° C. for 7 days (CIPAC MT39), and at 0° C. with nucleation
Assay type: physicochemical
Details: tebuconazole 300 g/L EC
Protocol: 1. Description of the Tests Performed: The formulations were prepared by dilution of various active ingredients reported in the table here below in the compositions 1 to 4 (solvents according to the invention) synthesised here above: a) Visual observation at 25° C.: the appearance of the formulation is noted and the possible presence of crystals is eventually recorded. b) Visual observation at 0° C.: the formulation is placed for a period of 7 days at 0° C. and the appearance of the formulation is noted and the possible presence of crystals is eventually recorded (CIPAC test MT39). c) Visual observation at 0° C. with nucleation (for introduction into the liquid of a crystal of the pure active ingredient): […] The appearance of the formulation is noted and the possible presence of crystals or growth of the crystal introduced is eventually recorded. The active ingredients used are commercially available.

CN1CCCC1=O [Solvent 6, N-methylpyrrolidone]
State of the solution at +25° C.: Clear | State of the solution at 0° C. (7 days at 0° C.): Clear | State of the solution at 0° C. after seeding (crystal introduced, further 7 days at 0° C.): Crystal
